Laboratory results: patent US5098933A, “Pharmaceutically useful Michael addition products of unsaturated aldehydes and ketones and ascorbic acid” (Theracel Corporation, priority 1990, dated 1992)

How the values were obtained:
[1] = tested on: splenocytes; assay: Immunomodulation panel: total splenocyte counts, antigen stimulated mice; format: in vivo, C57BL/6J mice
Experimental: (§1) Daily intraperitoneal injections of KCPBL were administered to normal animals and immunological responsiveness to mitogens and specific antigen evaluated.
The test compound was weighed out immediately before use and dissolved in the injection vehicle. This solution was sterile-filtered using a 0.22 micron filter and the appropriate dose injected into mice in a 0.5 ml volume. The dose was individually calculated for each animal, based on animal weight on the first day of the experiment.
Inbred C57BL/6J mice were obtained from Jackson Laboratories, Bar Harbor, Me. The animals were held for one week before use in an experiment. Prior to commencement of a study, the animals were placed into groups and weighed.
Group size ten male mice per dosage group.
(§2) Doses and schedule--Doses were selected to bracket the range generally known to be immunostimulatory in past experiments, 1, 10, and […] daily for four days.
Immunization--All animals except for sham controls were injected with 0.5 ml of a 2% suspension of sheep erythrocyte on day zero. This occurred two days following any pretreatment and the day before the initiation of study drug administration.
Sacrifice--Animals were sacrificed by cervical dislocation on day five. […]
As an assessment of immunopathology in the above screening test panel, the cellularity of the spleen was evaluated by determination of the total number of splenocytes harvested. Humoral-mediated immunity was measured by enumerating IgM plaque-forming cells to the T-dependent antigen sheep erythrocytes. Cell-mediated immunity was evaluated as described above by determination of the ability of the splenocytes to produce the lymphokine interleukin-2 in response to stimulation by the mitogen concanavalin-A. Another measurement of cell-mediated immunity was the responsiveness of the splenic lymphocytes to the mitogens concanavalin-A (Con-A); phytohemagglutinin (PHA) and pokeweed mitogen (PWM) in the lymphocyte blastogenesis assay. […] The responsiveness of the cells was measured by the uptake of radiolabeled 14C-thymidine.

[2] = tested on: immune system; assay: Tests to establish immunomodulatory properties (overall statement); format: in vivo; details: normal antigen stimulated mice
Experimental: The following tests were conducted on various compounds within the scope of this invention to establish their immunodmodulatory properties. […] Conversely, at higher dosage levels, e.g. about 200 to 600 mg/kg body weight they function as immunoinhibitors.
The tests used to establish immunostimulation were:

[3] = tested on: IL-2; assay: Immunotoxicity--Multi-dose: IL-2 induction; format: in vivo, mice
Experimental: The study incorporated five treatment groups into its design: group 1, sham intravenous control; group 2, 100 mg/kg/day perorally; group 3, 1000 mg/kg/day intravenously; group 4, […], and, group 5, 100 mg/kg/day intravenously. Mice were administered KCPBL daily for a total of fourteen days via the oral (0.2 ml of a 147.5 mg/ml solution or a 29.5 mg/ml solution by gavage) and intravenous route (0.2 ml of 147.5 mg/ml solution or a 29.5 mg/ml solution by tail vein) to achieve a dose of 100 or 1000 mg/kg, respectively. The test dose was prepared fresh daily and dissolved in sterile non-pyrogenic saline. On the fifteenth day the mice were weighed, sacrificed, and the spleens, lungs, livers, kidneys and thymuses removed. These organs were weighed and, except for the spleens, the formalin-fixed organs were analyzed by a veterinary pathologist. Only two randomly-selected sets of animal organs per treatment group were histopathologically evaluated since the remaining three animals were used to isolate splenic lymphocytes for use in cellular immunoassays.
A leukocyte differential was obtained on peripheral blood samples and spleen cell counts (performed with Coulter Counter), and an IL-2 induction assessment as well as standard lymphocyte stimulation assays using PHA, CON-A and PWM conducted.
The individual spleens of three mice from control and test groups were processed to isolate lymphocytes and the protocols for lymphocyte blastogenesis, IL-2 induction and assay were performed. The remaining two mice in each group were sacrificed and their lungs, liver, kidney, and spleen were fixed in formalin and sent to AnMed Biosafe for histopathologic examination.

[4] = Parenteral Toxicity--LD50 in mice; details: mouse, in vivo, ip
Experimental: (§3) The objective of this experiment was to determine the LD50 value for KCPBL when administered intraperitoneally to mice in a standard LD50 test procedure.
(§4) The test animals were CD-1 male mice. The mean weight for these animals on the day of test product administration was 25.5 grams.
(§5) KCPBL (lot 101, consisting of 42% stereoisomer A and 58% stereoisomer B) was dissolved in pyrogen-free normal (0.85%) saline (NaCl).
(§6) Five animals constituted each treatment group.
(§7) Each mouse received 0.5 ml by intraperitoneal (i.p.) injection, using a 3.0 cc syringe fitted with a 23-gauge needle.
(§8) All mice were observed daily for signs, symptoms and survival for three days. Survival statistics were determined after third day.
(§9) Two mice were randomly selected from the control and high dose test group for sacrifice and selection of tissues for histopatholigic examination.
(§10) LD50 was calculated by the method of Spearman & Karber: Basic Exercises in Immunochemistry, A. Nowatny (Ed); Pg 184-85, Springer-Verlag,N.J.

[5] = tested on: CD-1 male mice; assay: Parenteral Toxicity--LD50 in mice
Experimental: as §3, §4, §5, §6, §7, §8, §9, §10

[6] = tested on: splenic lymphocytes; assay: Immunomodulation panel: lymphocyte blastogenesis (Con-A, PHA, PWM); format: in vivo, C57BL/6J mice; details: 100 mg/kg i.p.
[7] = tested on: splenic lymphocytes; assay: as above; format: in vivo, C57BL/6J mice
Experimental: as §1, §2
As an assessment of immunopathology in the above screening test panel, the cellularity of the spleen was evaluated by determination of the total number of splenocytes harvested. Humoral-mediated immunity was measured by enumerating IgM plaque-forming cells to the T-dependent antigen sheep erythrocytes. Cell-mediated immunity was evaluated as described above by determination of the ability of the splenocytes to produce the lymphokine interleukin-2 in response to stimulation by the mitogen concanavalin-A. Another measurement of cell-mediated immunity was the responsiveness of the splenic lymphocytes to the mitogens concanavalin-A (Con-A); phytohemagglutinin (PHA) and pokeweed mitogen (PWM) in the lymphocyte blastogenesis assay. In the latter test, the activation and proliferation of the lymphocytes to the mitogens represents the capability of the cells to sequentially pass from G0 to G1 and the S phse of the cell cycle. The responsiveness of the cells was measured by the uptake of radiolabeled 14C-thymidine.

[8] = Pharmacokinetics of 3H-KCPBL in mice, plasma levels; format: in vivo; details: intravenous, mouse, through 6 hours
Experimental: The objectives of these tests were to evaluate the pharmacokinetics of radiolabeled KCPBL when administered either perorally or intravenously to mice.
3H-KCPBL was prepared from the pure drug substance KCPBL by an exchange procedure using high specific activity tritiated water. The product was purified by reverse phase high performance liquid chromatography and then freeze-dried. Analysis was carried out on ^3 H-KCPBL reconstituted in water. Specific activity was not less than 185 GBg/mmol or 5 Ci/mmol and the molecular weight of the product is 258. HPLC analysis for purity was performed using a Zorbax C8 column (25 cm×4.6) eluting with water: acetonitrile (930:70).
In the mouse studies, 3H-KCPBL was dissolved in sterile pyrogen-free saline containing […] of non-radiolabeled KCPBL. The final concentration of the test article in an injection volume of 0.1 ml was 66.6 mcCi. One tenth ml was administered intravenously for plasma level and tissue biodistribution studies. Peroral dosages were prepared in a manner consistent with this approach.
Mice were given intravenous doses of 3H-KCPBL to evaluate its biodistribution in this laboratory animal model.

Compound: O=C1CCC(C2(O)C(=O)OC3C(O)COC32O)C1 (stereo not shown) [KCPBL]
- Splenocytes ([1]; 1.0 mg/kg i.p.): 4.34 ± 0.7 ×10^7
- Splenocytes ([1]; 10 mg/kg i.p.): 3.59 ± 0.8 ×10^7
- Splenocytes ([1]; 100 mg/kg i.p.): 3.62 ± 0.4 ×10^7
- immunostimulatory activity on T-helper (Th) mediated lymphocyte functions [2]: demonstrated an immunostimulatory activity on T-helper (Th) mediated lymphocyte functions
- IL-2 ([3]; 100 mg/kg IV (group 5)): 41.15 HMU/MI
- IL-2 ([3]; 100 mg/kg P.O. (group 4)): 44.81 ± 20.8 HMU/MI
- IL-2 ([3]; 1000 mg/kg IV (group 3)): 18.12 ± 10.50 HMU/MI
- IL-2 ([3]; 1000 mg/kg P.O. (group 2)): 21.11 ± 13.69 HMU/MI
- IL-2 production ([3]; treated vs sham-injected controls): comparable
- LD50 at 72 h [4]: ~8570 mg/kg
- deaths ([5]; highest dose level, i.p.): Only two animals died
- organ histopathology (lungs, liver, kidneys) ([5]; mouse, in vivo): no significant deviations in organ histopathology
- overt signs or symptoms of toxic response ([5]; mouse, in vivo, ip): no overt signs or symptoms observed
- Lymphocyte Blastogenesis, PHA [6]: 5849 ± 1227 Counts per minute
- Lymphocyte Blastogenesis, RPMI [6]: 83 ± 35 Counts per minute
- Lymphocyte Blastogenesis, PHA ([7]; 1.0 mg/kg i.p.): 5176 ± 1185 Counts per minute
- Lymphocyte Blastogenesis, PWM ([7]; 1.0 mg/kg i.p.): 1977 ± 540 Counts per minute
- Lymphocyte Blastogenesis, RPMI ([7]; 1.0 mg/kg i.p.): 95 ± 66 Counts per minute
- Lymphocyte Blastogenesis, Con-A ([7]; 10 mg/kg i.p.): 10074 ± 1881 Counts per minute
- Lymphocyte Blastogenesis, PHA ([7]; 10 mg/kg i.p.): 5590 ± 864 Counts per minute
- Lymphocyte Blastogenesis, RPMI ([7]; 10 mg/kg i.p.): 95 ± 54 Counts per minute
- reactivity of splenocytes to PHA ([7]; drug-treated animals): reactivity to PHA was not affected
- responsiveness of splenocytes to Con-A ([7]; drug-treated animals): slightly more responsive to Con-A
- responsiveness of splenocytes to PWM ([7]; drug-treated animals): significant increases in the responsiveness
- serum level profile [8]: immediate peak serum drug level followed by a steep decline
